Test results as given in PMC5459956 (International Journal of Nanomedicine, 2017).
pIC50: −log10 of the molar value.

Key:
[1] = system: healthy bronchial epithelial cells; conditions: in vitro; cited from earlier work
[2] = system: MV-4–11 cells; assay: MV-4–11 cytotoxicity assay; type: cell-based; conditions: read-out: 72-h IC50, 72 h exposure, PrestoBlue
[3] = cited from earlier work
[4] = system: ROS generation in MV-4–11 cells; assay: Reactive oxygen species assay; type: cell-based; conditions: 4 h, Cu(DDC)2 200 µM, menadione 50 µM, versus cell-free condition

## CCN(CC)C(=S)[S-].CCN(CC)C(=S)[S-].[Cu+2] [Cu(DDC)2, Copper diethyldithiocarbamate]
[1]
  effect in healthy bronchial epithelial cells: did not have any effect
[2]
  pIC50: ~6.96
[3]
  solubility (slightly soluble precipitate): < 100 µg/mL

## CC1=CC(=O)c2ccccc2C1=O [Menadione, menadione]
[4]
  ROS generation: ROS formation in the cells was evident
